These results are taken from PMC5816626, “A multitarget approach to drug discovery inhibiting Mycobacterium tuberculosis PyrG and PanK” (Scientific Reports, 2018).

≈ marks a conversion by molar mass, not a printed value. Entries after “also recorded” stand apart in the source; their conditions may differ.

One data set deals with M. tuberculosis H37Rv. Kind of data set: MIC against M. tuberculosis H37Rv (wild type). It counts as cell-based. Conditions: Mycobacterium tuberculosis; strain H37Rv.
Another data set relates to human cell lines. The arrangement: method as in PMID 26097035. The note with it: cited from earlier work.
For another data set, the target named is M. tuberculosis PanK (Mycobacterium tuberculosis, UniProt P9WPA7). Kind of data set: PanK activity during incubation with prodrug and EthA. It counts as biochemical. Conditions: 8 hours of incubation with EthA and NADPH, compound 0.3 mM.
M. tuberculosis PanK, sequence (P9WPA7 whole entry): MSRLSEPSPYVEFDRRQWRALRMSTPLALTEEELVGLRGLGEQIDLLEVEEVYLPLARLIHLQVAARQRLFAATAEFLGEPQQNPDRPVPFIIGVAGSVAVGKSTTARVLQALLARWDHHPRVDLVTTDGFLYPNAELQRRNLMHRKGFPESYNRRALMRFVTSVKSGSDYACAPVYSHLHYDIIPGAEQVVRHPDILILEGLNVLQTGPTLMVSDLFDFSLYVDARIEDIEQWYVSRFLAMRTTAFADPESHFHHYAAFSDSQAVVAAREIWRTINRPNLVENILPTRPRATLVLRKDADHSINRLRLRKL
In the next data set the test system is M. tuberculosis H37Ra. The data set is described as follows: microbe, parasite or virus in culture. It counts as cell-based. The note with it: Mycobacterium tuberculosis, read-out: Growth inhibition at harvest (OD600).
A further data set relates to M. tuberculosis PyrG. Set-up: method as in PMID 26097035, PMID 28475832. Conditions: previously identified PyrG inhibitors; cited from earlier work.
For data set [1], the target named is M. tuberculosis PanK wild type (Mycobacterium tuberculosis, UniProt P9WPA7). Kind of data set: biochemical.
M. tuberculosis PanK wild type, sequence (P9WPA7 whole entry): as above
In a further data set the test system is M. tuberculosis. The arrangement: method as in PMID 26097035, PMID 28475832. The note with it: known antitubercular activity; cited from earlier work.

Broadly, the MIC is the lowest concentration found to suppress growth. As a reminder, the inhibition is the percentage by which the read-out fell short of the control. As a reminder, the IC50 is the concentration at which inhibition is half-maximal. The Ki is a dissociation constant, usually derived from enzyme kinetics or from competition with a known ligand. A high value points to weaker binding.

Regarding `O=C(CCc1ccccc1)NC(=S)Nc1ccc(N2CCCCC2)cc1` [compound 7904688, 3-phenyl-N-[(4-piperidin-1-ylphenyl)carbamothioyl]propanamide], the MIC against M. tuberculosis H37Rv turned out to be 0.5 mg/L (≈ 1.36 µM). Also, the “toxicity against human cell lines” value with human cell lines is on record as “very low toxicity”. The “loss of PanK activity” value on M. tuberculosis PanK is given as “more than 90%”.
Turning to `C[C@H]1COC2(CCN(c3nc(=O)c4cc(C(F)(F)F)cc([N+](=O)[O-])c4s3)CC2)O1` [BTZ043, reference compound], the inhibition at 0.2 µg/mL with M. tuberculosis H37Ra was 23%.
Take `Cc1ccc(C(=O)Nc2ccc([N+](=O)[O-])cc2)s1` [compound 7947882, 5-methyl-N-(4-nitrophenyl)thiophene-2-carboxamide]: the MIC with M. tuberculosis H37Rv was 0.5 mg/L (≈ 1.91 µM). For the same compound, the “toxicity against human cell lines” value with human cell lines is “very low toxicity”. The “loss of PanK activity” value at M. tuberculosis PanK is listed as “more than 90%”.
As to `O=C(Cc1ccc(F)cc1)Nc1nc(-c2ccccn2)cs1` [GSK1570606A, 2-(4-fluorophenyl)-N-(4-(pyridin-2-yl)thiazol-2-yl)acetamide], the IC50 with M. tuberculosis PyrG is 4.2 µM. Moreover, the inhibition at 0.2 µg/mL in the data set on M. tuberculosis H37Ra worked out at 37%. In addition, the “PanK IC50” value in data set [1] is recorded as “n. i”. In addition, in the data set with M. tuberculosis, the minimal inhibitory concentration (MIC) is 9.3 µM (≈ 2.91 µg/mL).
In turn, `CC1=CC=C(C(=O)Nc2ccc([N+](=O)[O-])cc2)S1(=O)=O` [compound 11426026] registered a minimum inhibitory concentration (MIC) against M. tuberculosis H37Rv of 1 mg/L (≈ 3.4 µM). Further, the inhibition at 0.2 µg/mL in the data set with M. tuberculosis H37Ra turned out to be 83%.
For the compound `c1ccc(-c2csc(Nc3nc4cc5c(cc4s3)OCO5)n2)nc1` [GSK735826A, N-(4-(pyridin-2-yl)thiazol-2-yl)-(1,3)dioxolo(4′,5′:4,5)benzo(1,2-d)thiazol-6-amine], the half-maximal inhibitory concentration (IC50) is 22 µM with M. tuberculosis PyrG and 70 µM in data set [1]. Also, the inhibition at 0.2 µg/mL with M. tuberculosis H37Ra amounted to 66%. In data set [1] (competitive inhibitor towards the ATP binding site), the Ki amounted to 65.3 ± 4.33 µM. Besides, in the data set with M. tuberculosis, the minimum inhibitory concentration (MIC) is 2.7 µM (≈ 0.957 µg/mL).
Take `O=C(CN1CCN(Cc2ccccc2)CC1)Nc1ccc([N+](=O)[O-])cc1C(=O)c1ccccc1` [CDD-823953, N-(2-benzoyl-4-nitrophenyl)-2-(4-benzylpiperazin-1-yl)acetamide]: the IC50 was 80 µM in the data set with M. tuberculosis PyrG and 250 µM in data set [1]. Further, in the data set on M. tuberculosis, the MIC was 4.39 µM (≈ 2.01 µg/mL).
In the data set with M. tuberculosis H37Rv, `CCc1cc(C(N)=S)ccn1` [Ethionamide, reference compound] had a minimum inhibitory concentration (MIC) of 1 mg/L (≈ 6.02 µM).
On to `COc1ccc(-c2nnc(SCC(=O)Nc3ccc([N+](=O)[O-])cc3)o2)cc1` [CDD-934506, 2-((5-(4-methoxyphenyl)-1,3,4-oxadiazol-2-yl)sulfanyl)-N-(4-nitrophenyl)acetamide], for which, in the data set on M. tuberculosis PyrG, the “PyrG IC50” value is “inactive; also recorded: n. i”. For the same compound, half-maximal inhibition in data set [1] (IC50) was put at 40 µM. Also, in the data set with M. tuberculosis, the MIC is 0.87 µM (≈ 0.336 µg/mL).
Turning to `O=C(COc1cccc(F)c1)Nc1nc(-c2ccccn2)cs1` [GSK920684A, 2-(3-fluorophenoxy)-N-(4-(pyridin-2-yl)thiazol-2-yl)acetamide], the half-maximal inhibitory concentration (IC50) in the data set with M. tuberculosis PyrG is 22 µM. Further, the inhibition at 0.2 µg/mL in the data set with M. tuberculosis H37Ra was found to be 26%. The “PanK IC50” value in data set [1] was “n. i”.
